The source of these data is patent US9499523B2, “Phosphatidylinositol 3-kinase inhibitors” (Gilead Sciences, Inc., priority 2014, dated 2016).

Molecules are shown by their SMILES. pIC50: −log10 of the molar value.

The target of one test is PI3Kδ (Homo sapiens (Human), UniProt O00329). In words: TR-FRET enzymatic assay of PI3K isoforms, PI3Kδ. Conditions: read-out: PI3Kδ IC50, 2×Km ATP, 30 minutes at 25° C.
Another test concerns the target PI3Kβ (Homo sapiens (Human), UniProt P42338). Briefly: TR-FRET enzymatic assay of PI3K isoforms, PI3Kβ. Particulars: for pIC50: TR-FRET, 2×Km ATP, 30 minutes at 25° C.; for PI3Kγ/PI3Kβ ratio: ratio of IC50 values, selectivity for PI3Kβ over PI3Kγ. The format is biochemical.
The next test addresses PI3Kγ (Homo sapiens (Human), UniProt P48736). Briefly: TR-FRET enzymatic assay of PI3K isoforms, PI3Kγ. The format is biochemical. Particulars: 2×Km ATP, PI3Kγ at 2 nM, 30 minutes at 25° C.

PI3Kδ, sequence (O00329 whole entry, canonical isoform): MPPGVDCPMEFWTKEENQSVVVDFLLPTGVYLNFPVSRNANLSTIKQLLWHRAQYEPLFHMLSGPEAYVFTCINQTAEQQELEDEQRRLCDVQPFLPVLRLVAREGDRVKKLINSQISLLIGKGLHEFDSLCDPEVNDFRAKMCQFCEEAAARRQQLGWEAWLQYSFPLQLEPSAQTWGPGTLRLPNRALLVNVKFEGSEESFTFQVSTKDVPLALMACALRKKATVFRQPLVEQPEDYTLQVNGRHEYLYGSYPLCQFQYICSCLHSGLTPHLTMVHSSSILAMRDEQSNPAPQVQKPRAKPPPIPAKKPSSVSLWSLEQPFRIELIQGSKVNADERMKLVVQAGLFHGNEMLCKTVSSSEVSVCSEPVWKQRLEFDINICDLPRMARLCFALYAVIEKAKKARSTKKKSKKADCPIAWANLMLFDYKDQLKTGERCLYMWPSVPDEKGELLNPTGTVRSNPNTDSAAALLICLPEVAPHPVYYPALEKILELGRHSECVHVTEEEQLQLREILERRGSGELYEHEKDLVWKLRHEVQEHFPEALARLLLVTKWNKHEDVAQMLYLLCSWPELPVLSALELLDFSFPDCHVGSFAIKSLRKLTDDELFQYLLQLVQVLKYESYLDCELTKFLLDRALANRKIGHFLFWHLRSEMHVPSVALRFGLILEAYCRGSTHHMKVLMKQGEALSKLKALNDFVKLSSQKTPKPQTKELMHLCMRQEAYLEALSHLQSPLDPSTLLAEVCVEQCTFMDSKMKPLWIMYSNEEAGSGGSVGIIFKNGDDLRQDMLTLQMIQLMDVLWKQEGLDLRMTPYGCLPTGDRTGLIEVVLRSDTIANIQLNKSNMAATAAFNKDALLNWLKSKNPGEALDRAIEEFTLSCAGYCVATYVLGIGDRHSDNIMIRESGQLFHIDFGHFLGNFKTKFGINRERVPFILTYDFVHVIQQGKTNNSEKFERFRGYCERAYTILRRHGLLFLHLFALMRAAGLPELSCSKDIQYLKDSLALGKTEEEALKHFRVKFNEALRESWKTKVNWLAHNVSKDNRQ
PI3Kδ, sequence (P27986 whole entry partner, canonical isoform): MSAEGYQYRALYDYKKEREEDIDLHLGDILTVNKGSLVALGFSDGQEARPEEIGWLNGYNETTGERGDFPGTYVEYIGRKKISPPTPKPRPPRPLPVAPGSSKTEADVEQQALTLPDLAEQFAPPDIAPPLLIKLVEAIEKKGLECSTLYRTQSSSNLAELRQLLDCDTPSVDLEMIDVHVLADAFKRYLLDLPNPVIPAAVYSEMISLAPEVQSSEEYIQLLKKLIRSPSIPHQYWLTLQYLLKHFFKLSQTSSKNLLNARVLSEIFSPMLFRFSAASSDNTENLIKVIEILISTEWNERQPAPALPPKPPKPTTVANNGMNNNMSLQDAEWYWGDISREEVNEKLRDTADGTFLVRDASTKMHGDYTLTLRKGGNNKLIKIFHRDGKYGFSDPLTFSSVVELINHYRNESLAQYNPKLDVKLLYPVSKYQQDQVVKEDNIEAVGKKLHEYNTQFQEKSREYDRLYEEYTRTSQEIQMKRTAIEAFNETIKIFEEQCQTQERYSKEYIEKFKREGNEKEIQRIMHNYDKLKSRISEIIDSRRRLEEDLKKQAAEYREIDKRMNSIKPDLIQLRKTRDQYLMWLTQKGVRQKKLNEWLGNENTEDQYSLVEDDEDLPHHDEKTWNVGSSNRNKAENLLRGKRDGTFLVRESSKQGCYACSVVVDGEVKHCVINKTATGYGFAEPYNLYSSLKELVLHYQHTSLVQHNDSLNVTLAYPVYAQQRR
PI3Kγ, sequence (P48736 whole entry, canonical isoform): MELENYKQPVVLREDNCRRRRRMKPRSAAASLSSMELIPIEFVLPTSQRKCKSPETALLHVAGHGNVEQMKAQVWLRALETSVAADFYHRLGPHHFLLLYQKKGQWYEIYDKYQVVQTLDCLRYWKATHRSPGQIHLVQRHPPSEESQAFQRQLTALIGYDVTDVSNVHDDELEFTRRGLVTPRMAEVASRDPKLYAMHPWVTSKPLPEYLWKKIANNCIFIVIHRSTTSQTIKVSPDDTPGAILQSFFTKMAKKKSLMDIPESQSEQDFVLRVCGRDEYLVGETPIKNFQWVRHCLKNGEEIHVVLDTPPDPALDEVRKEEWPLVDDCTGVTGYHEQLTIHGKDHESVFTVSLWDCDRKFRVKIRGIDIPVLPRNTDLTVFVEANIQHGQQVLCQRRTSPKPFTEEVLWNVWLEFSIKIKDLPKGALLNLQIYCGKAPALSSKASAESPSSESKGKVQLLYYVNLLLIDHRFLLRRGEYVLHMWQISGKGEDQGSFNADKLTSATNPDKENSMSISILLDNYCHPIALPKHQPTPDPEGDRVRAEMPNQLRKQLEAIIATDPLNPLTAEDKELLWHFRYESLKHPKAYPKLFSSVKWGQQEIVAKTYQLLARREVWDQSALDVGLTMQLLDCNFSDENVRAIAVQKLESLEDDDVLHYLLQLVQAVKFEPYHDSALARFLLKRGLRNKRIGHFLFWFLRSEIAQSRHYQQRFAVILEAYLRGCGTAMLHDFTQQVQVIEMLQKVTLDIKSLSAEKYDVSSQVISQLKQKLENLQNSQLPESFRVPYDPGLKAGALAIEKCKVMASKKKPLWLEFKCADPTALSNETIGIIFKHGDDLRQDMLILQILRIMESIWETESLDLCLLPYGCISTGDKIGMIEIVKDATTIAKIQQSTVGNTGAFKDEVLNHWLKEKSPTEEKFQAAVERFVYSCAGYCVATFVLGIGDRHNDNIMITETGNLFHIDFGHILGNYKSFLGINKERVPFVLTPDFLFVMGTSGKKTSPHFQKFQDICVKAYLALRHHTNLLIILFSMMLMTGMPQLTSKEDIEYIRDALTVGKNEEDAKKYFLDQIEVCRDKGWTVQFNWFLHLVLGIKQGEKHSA
PI3Kβ, sequence (P42338 whole entry, canonical isoform): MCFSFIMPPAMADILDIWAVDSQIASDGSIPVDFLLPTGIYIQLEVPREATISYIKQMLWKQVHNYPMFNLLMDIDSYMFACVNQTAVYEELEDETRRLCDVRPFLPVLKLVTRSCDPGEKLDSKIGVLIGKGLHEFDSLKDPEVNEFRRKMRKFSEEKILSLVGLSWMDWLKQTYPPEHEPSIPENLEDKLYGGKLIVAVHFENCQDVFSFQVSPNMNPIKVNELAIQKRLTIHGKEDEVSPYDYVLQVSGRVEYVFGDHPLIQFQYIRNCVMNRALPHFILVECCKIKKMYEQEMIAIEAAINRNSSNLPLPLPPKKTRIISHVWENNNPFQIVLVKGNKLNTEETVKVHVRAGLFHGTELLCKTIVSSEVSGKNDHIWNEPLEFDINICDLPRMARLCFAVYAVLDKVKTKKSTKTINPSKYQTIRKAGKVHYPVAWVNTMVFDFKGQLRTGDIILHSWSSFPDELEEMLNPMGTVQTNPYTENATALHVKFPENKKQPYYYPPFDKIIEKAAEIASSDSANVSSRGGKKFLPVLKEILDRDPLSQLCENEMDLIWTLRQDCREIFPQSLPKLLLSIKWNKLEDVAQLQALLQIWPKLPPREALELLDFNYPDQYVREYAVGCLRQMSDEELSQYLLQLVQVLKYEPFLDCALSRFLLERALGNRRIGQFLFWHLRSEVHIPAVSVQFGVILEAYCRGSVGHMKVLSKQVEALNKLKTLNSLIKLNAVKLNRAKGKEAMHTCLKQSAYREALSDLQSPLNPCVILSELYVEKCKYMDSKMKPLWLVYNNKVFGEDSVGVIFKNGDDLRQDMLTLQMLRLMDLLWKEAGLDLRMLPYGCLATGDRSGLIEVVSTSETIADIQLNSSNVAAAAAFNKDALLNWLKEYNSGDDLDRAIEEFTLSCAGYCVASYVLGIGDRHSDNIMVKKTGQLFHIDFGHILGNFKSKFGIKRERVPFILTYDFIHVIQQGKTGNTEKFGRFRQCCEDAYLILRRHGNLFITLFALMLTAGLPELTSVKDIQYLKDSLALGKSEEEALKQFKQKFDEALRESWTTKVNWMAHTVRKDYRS
PI3Kβ, sequence (P27986 whole entry partner, canonical isoform): as the sequence (P27986 whole entry partner, canonical isoform) above
Experimental for PI3Kβ: (§1) The compounds of formula (I) were characterized for their enzymatic activity against the PI3K isoforms. The activities were measured using a time-resolved fluorescence resonance energy transfer (TR-FRET) assay. TR-FRET monitored the formation of 3,4,5-inositol triphosphate molecule that competed with fluorescently labeled PIP3 for binding to the GRP-1 pleckstrin homology domain protein.
(§2) Class I PI3K isoforms were expressed and purified as heterodimeric recombinant proteins. All assay reagents and buffers for the TR-FRET assay were purchased from Millipore. […] The reactions were terminated with a final concentration of 10 mM EDTA, 10 nM labeled-PIP3, and 35 nM Europium labeled GRP-1 detector protein before reading TR-FRET on an Envision plate reader (Ex: 340 nm; Em: 615/665 nm; 100 μs delay and 500 μs read window).
(§3) The results were normalized based on positive (1 μM wortmanin) and negative (DMSO) controls, and the IC50 values for PI3K α, β, δ and γ were calculated from the fit of the dose-response curves to a four-parameter equation.
Experimental for PI3Kγ: as §1, §2, §3
Experimental for PI3Kδ: as §1, §2, §3

Turning to `C[C@H](Nc1ncnc2occc12)c1nc2c(F)ccc(Cl)c2c(=O)n1-c1cnc(N)cn1` [Compound 5, (S)-3-(5-amninopyrazin-2-yl)-5-chloro-8-fluoro-2-(1-(furo[2,3-d]pyrimidin-4-ylamino)ethyl)quinazolin-4(3H)-one], the figures for the pIC50 on PI3Kδ, against PI3Kβ and against PI3Kγ were 5.64, 5.24 and < 5.00, respectively.
Turning to `C[C@H](Nc1nc(N)nc(N)c1C#N)c1nc2cccc(Cl)c2c(=O)n1-c1cccnc1` [Compound X, (S)-2,4-diamino-6-((1-(5-chloro-4-oxo-3-(pyridin-3-yl)-3,4-dihydroquinazolin-2-yl)ethyl)amino)pyrimidine-5-carbonitrile, reference compound], on PI3Kβ, the PI3Kγ/PI3Kβ ratio amounted to 0.6.
As to `C[C@H](Nc1nc(N)nc(N)c1C#N)c1nc2c(F)cc(F)cc2c(=O)n1-c1cnc(N)cn1` [Compound 15, (S)-2,4-Diamino-6-((1-(3-(5-aminopyrazin-2-yl)-6,8-difluoro-4-oxo-3,4-dihydroquinazolin-2-yl)ethyl)amino)pyrimidine-5-carbonitrile], the pIC50 was 7.28 on PI3Kδ, 8.01 on PI3Kβ and 5.82 against PI3Kγ.
For `N#Cc1c(N)nc(N)nc1N[C@H](c1nc2c(Cl)ccc(Cl)c2c(=O)n1-c1cnc(N)cn1)C1CC1` [Compound 10, (S)-2,4-diamino-6-(((3-(5-aminopyrazin-2-yl)-5,8-dichloro-4-oxo-3,4-dihydroquinazolin-2-yl)(cyclopropyl)methyl)amino)pyrimidine-5-carbonitrile], in that order: 8.62, 8.44 and 5.51.
As for `C[C@H](Nc1nc(N)nc(N)c1C#N)c1nc2c(Cl)cc(F)cc2c(=O)n1-c1cnc(N)cn1` [Compound 17], the pIC50 on PI3Kδ is 7.49; on PI3Kβ it was 7.85; on PI3Kγ, 5.31.
For `C[C@H](Nc1nc(N)nc(N)c1C#N)c1nc2c(Cl)ccc(Cl)c2c(=O)n1-c1cnc(N)cn1` [Compound 11, (S)-2,4-diamino-6-((1-(3-(5-aminopyrazin-2-yl)-5,8-dichloro-4-oxo-3,4-dihydroquinazolin-2-yl)ethyl)amino)pyrimidine-5-carbonitrile], the pIC50 at PI3Kδ was 8.72; against PI3Kβ it was 8.74; at PI3Kγ, 5.82.
For `C[C@H](Nc1ncnc2[nH]nnc12)c1nc2c(F)cccc2c(=O)n1-c1cnc(N)cn1` [Compound 4, (S)-2-(1-((3H-[1,2,3]triazolo[4,5-d]pyrimidin-7-yl)amino)ethyl)-3-(5-aminopyrazin-2-yl)-8-fluoroquinazolin-4(3H)-one], the negative-log IC50 (pIC50) was 5.57 at PI3Kδ, < 5.00 on PI3Kβ and < 5.00 against PI3Kγ.
For the compound `C[C@H](Nc1nc(N)nc(N)c1Cl)c1nc2cccc(Cl)c2c(=O)n1-c1cnc(N)cn1` [Compound 7, (S)-3-(5-aminopyrazin-2-yl)-5-chloro-2-(1-((2,6-diamino-5-chloropyrimidin-4-yl)amino)ethyl)quinazolin-4(3H)-one], the pIC50 on PI3Kδ is 7.62; against PI3Kβ it was 7.33; on PI3Kγ, 5.40.
Take `C[C@H](Nc1nc(N)nc(N)c1C#N)c1nc2c(F)ccc(Cl)c2c(=O)n1-c1cnc(N)cn1` [Compound 2, (S)-2,4-diamino-6-((1-(3-(5-aminopyrazin-2-yl)-5-chloro-8-fluoro-4-oxo-3,4-dihydroquinazolin-2-yl)ethyl)amino)pyrimidine-5-carbonitrile]: the pIC50 was 8.46 at PI3Kδ, 8.36 at PI3Kβ and 6.20 at PI3Kγ.
Regarding `C[C@H](Nc1nc(N)nc(N)c1Cl)c1nc2c(F)ccc(Cl)c2c(=O)n1-c1cnc(N)cn1` [Compound 1, (S)-3-(5-aminopyrazin-2-yl)-5-chlor-2-(1-((2,6-diamino-5-chloropyrimidin-4-yl)amino)ethyl)-8-fluoroquinazolin-4(3H)-one], the pIC50 was 7.27 on PI3Kβ and < 5.00 against PI3Kγ.
On to `Nc1cnc(-n2c([C@@H](Nc3nc(N)nc(N)c3Cl)C3CC3)nc3c(Cl)ccc(Cl)c3c2=O)cn1` [Compound 12, (S)-3-(5-aminopyrazin-2-yl)-5,8-dichloro-2-(cyclopropyl((2,6-diamino-5-chloropyrimidin-4-yl)amino)methyl)quinazolin-4(3H)-one], for which the figures for the negative-log IC50 (pIC50) on PI3Kδ, against PI3Kβ and at PI3Kγ were 7.01, 5.92 and < 5.00, respectively.
For the compound `C[C@H](Nc1nc(N)nc(C(F)F)c1C#N)c1nc2c(Cl)cc(F)cc2c(=O)n1-c1cnc(N)cn1` [Compound 14, (S)-2-amino-4-((1-(3-(5-aminopyrazin-2-yl)-8-chloro-6-fluoro-4-oxo-3,4-dihydroquinazolin-2-yl)ethyl)amino)-6-(difluoromethyl)pyrimidine-5-carbonitrile], the pIC50 is 6.47 at PI3Kδ, 6.70 against PI3Kβ and < 5.00 on PI3Kγ.
The like results for `C[C@H](Nc1nc(N)nc(N)c1Cl)c1nc2c(Cl)ccc(Cl)c2c(=O)n1-c1cnc(N)cn1` [Compound 13, (S)-3-(5-aminopyrazin-2-yl)-5,8-dichloro-2-(1-((2,6-diamino-5-chloropyrimidin-4-yl)amino)ethyl)quinazolin-4(3H)-one] were, in that order, 7.51, 6.77 and < 5.00.
As for `Nc1cnc(-n2c([C@@H](Nc3ncnc(N)c3Cl)C3CC3)nc3cccc(Cl)c3c2=O)cn1` [Compound 21, (S)-2-(((6-Amino-5-chloropyrimidin-4-yl)amino)(cyclopropyl)methyl)-3-(5-aminopyrazin-2-yl)-5-chloroquinazolin-4(3H)-one], the pIC50 was 6.14 against PI3Kβ and < 5.00 at PI3Kγ.
With `Nc1cnc(-n2c([C@@H](Nc3nc(N)nc(N)c3Cl)C3CC3)nc3cccc(Cl)c3c2=O)cn1` [Compound 8, (S)-3-(5-aminopyrazin-2-yl)-5-chloro-2-(cyclopropyl((2,6-diamino-5-chloropyrimidin-4-yl)amino)methyl)quinazolin-4(3H)-one], the pIC50 at PI3Kδ was 7.62; on PI3Kβ, 6.72; on PI3Kγ, < 5.00.
Turning to `C[C@H](Nc1nc(N)nc(N)c1C#N)c1nc2cccc(Cl)c2c(=O)n1-c1ccccc1` [(S)-2,4-diamino-6-((1-(5-chloro-4-oxo-3-phenyl-3,4-dihydroquinazolin-2-yl)ethyl)amino)pyrimidine-5-carbonitrile, reference compound], at PI3Kβ, the PI3Kγ/PI3Kβ ratio result is given as “less than 1”.
As for `C[C@H](Nc1nc(N)nc(N)c1C#N)c1nc2cccc(Cl)c2c(=O)n1-c1cnc(N)cn1` [Compound 6, (S)-2,4-diamino-6-((1-(3-(5-aminopyrazin-2-yl)-5-chloro-4-oxo-3,4-dihydroquinazolin-2-yl)ethyl)amino)pyrimidine-5-carbonitrile], the values for the pIC50 on PI3Kδ, at PI3Kβ and against PI3Kγ were 8.70, 8.70 and 6.55, respectively.
With `N#Cc1c(N)nc(N)nc1N[C@H](c1nc2cccc(Cl)c2c(=O)n1-c1cnc(N)cn1)C1CC1` [Compound 9], the figures for the pIC50 on PI3Kδ, against PI3Kβ and on PI3Kγ were 8.57, 8.38 and 6.05, respectively.
On to `C[C@H](Nc1ncnc(N)c1C#N)c1nc2c(F)ccc(Cl)c2c(=O)n1-c1cnc(N)cn1` [Compound 3, (S)-4-amino-6-((1-(3-(5-aminopyrazin-2-yl)-5-chloro-8-fluoro-4-oxo-3,4-dihydroquinazolin-2-yl)ethyl)amino)pyrimidine-5-carbonitrile], for which the negative-log IC50 (pIC50) on PI3Kδ is 7.96; against PI3Kβ, 7.13; on PI3Kγ it was < 5.00.
